# Laboratory results as given in patent publication US20120058198A1, “METHODS FOR TREATING AND PREVENTING PNEUMONIA AND VENTILATOR-ASSOCIATED TRACHEOBRONCHITIS” (PULMATRIX, INC., priority 2009, published 2012).
# Legend:
# [1] = tested on: Serotype 3 Streptococcus pneumoniae; experiment: Mouse S. pneumoniae infection model, nebulized calcium:sodium formulations 2 hours before infection; format: in vivo; details: ampicillin synergy study; nebulized 2 h before infection; ~0.72 mg Ca/kg, ampicillin ~3 mg/kg
# Method: Unless otherwise stated, exposure times were 3 minutes in duration. […] CFU were enumerated the following day.
# bacteria = experiment: Pass through assay, calcium chloride dose dependence (bacterium not named); format: cell-based; details: amount delivered to mimetic, between the […] and […] solutions; from other analyses
# Method: In these studies, the number of exposures via nebulization was different, making direct comparisons difficult. […] In this study, a single dose of each formulation was delivered to the apical surface of sodium alginate mimetic and bacteria were added immediately after exposure. […] In contrast, the 0.12M and 0.38M treatments had no effect.
# All of the formulations tested above were formulated in isotonic saline. Thus, the inhibitory effects seen could be caused by the dual action of sodium and calcium ions in concert or alternatively, the effect could be driven entirely by calcium. To differentiate between these hypotheses, we tested additional calcium formulations based in water rather than saline.
SMILES,reduction in lung bacterial titers relative to saline control [1],critical concentration of calcium needed for the inhibition of bacteria (bacteria)
CC1(C)S[C@@H]2[C@H](NC(=O)[C@H](N)c3ccccc3)C(=O)N2[C@H]1C(=O)O [ampicillin],33 fold,–
[Ca+2].[Cl-].[Cl-] [calcium chloride],–,3-4 μg of calcium per cm^2
